Assay results as given in publication PMC10364322, “Evaluation of chronic drug-induced electrophysiological and cytotoxic effects using human-induced pluripotent stem cell-derived cardiomyocytes (hiPSC-CMs)” (Frontiers in Pharmacology, 2023).
Read-outs that look alike come from different tables or passages of the source.

Tested on: hiPSC-CMs (iCell-Cardiomyocytes^2)
Method: Cells were seeded according to the instructions of the cell provider, in fibronectin-coated 48-well MEA plates (Axion Cytoview Plates, M768-tMEA-48B) at a density suited to form a monolayer (i.e., 50 K/well) and maintained in culture in a stage incubator (37°C, 5% CO2).
At least 4 h before the beginning of the baseline measurements, a full medium exchange was performed (to a final volume of 400 µL per well). Neat compounds were dissolved in 100% DMSO at a stock concentration 1000-fold the highest target concentration. […] Afterwards, these stock solutions were diluted with Maintenance medium (CDi), to 10-fold the intended concentration. The final DMSO concentration in test solutions and vehicle control was 0.1%.
Spontaneous electrical activity was recorded in hiPSC-CMs monolayers as field potentials using the Maestro Pro MEA instrument (Axion Biosystems, Atlanta, GA, United States), which allows the maintenance of accurate temperature and CO2 levels (37°C, 5% CO2). After the plate was placed in the Maestro Pro and allowed to equilibrate for about 10 min, baseline acquisition of field potential and impedance signals was initiated and lasted for 5 min each. […] As impedance measures resistance of an applied alternating current through the hiPSC-CMs monolayer, a reduction in the attachment of hiPSC-CMs to the bottom of the well due to cell death or changes in the monolayer morphology, causes a drop in the impedance signal.
The potential presence of various arrhythmic events was evaluated and noted during the data analysis.
After the acquisition of all timepoint measurements, raw data were loaded into the data analysis software Axion Cardiac Analysis Tool (V.3.2.3). […] A.csv file containing information on the FP parameters per well, per time point, was then generated and used as input to the in-house data management system (SPEcII v.3.4, Unlimit-IT, Geel, Belgium), where descriptive statistics were calculated. Summary values at different time points after compound addition are expressed as percent change from baseline and shown as mean ± standard deviation (SD).
The nonparametric Wilcoxon-Mann Whitney Test was used to compare the percent change from the baseline (Δ%) value between the group treated with the compound at a given concentration and the group treated with the DMSO at each matching time points. A two-sided test at 5% significance level was considered. […] To assess the physiological relevance of changes, a tolerance interval of DMSO experiments was calculated at each time point, for each parameter. […] TIs indicate an interval where, with a certain confidence level (1- α = 0.95), a specified proportion (p = 0.80) of percent change for DMSO data falls. The lower and upper limits based on the TI values were used as cut-offs for the interpretation of the changes. For the cytotoxicity assays, measurements of fluorescence (after background fluorescence subtraction) from wells treated with the compounds were normalized by the average value of vehicle experiments (DMSO 0.1%) to obtain a DMSO-corrected, delta/delta percent change. Experiments from each condition, as delta/delta percent, were averaged and expressed as mean ± SD. Statistical analysis was performed using a non-parametric test (Kruskal-Wallis) and each treatment condition was compared to the relative DMSO 0.1%. Differences were considered statistically significant when the p-value was smaller than 0.05.

## COc1cc2c(Nc3ccc(Br)cc3F)ncnc2cc1OCC1CCN(C)CC1 [Vandetanib]
0.1 µM, 2h
  BR (beating rate), % change from baseline: 0±4%
  Beating below threshold, number of observations/total well numbers: 0/5
  Cessation of beating, number of observations/total well numbers: 0/5
  EAD, number of observations/total well numbers: 0/5
  FPDc (field-potential duration corrected by beat-rate), % change from baseline: 15.3±2.3 %
  Flat T-wave-like, number of observations/total well numbers: 0/5
0.1 µM, 24h
  BR (beating rate), % change from baseline: -9±5%
  Beating below threshold, number of observations/total well numbers: 0/5
  Cessation of beating, number of observations/total well numbers: 0/5
  EAD, number of observations/total well numbers: 0/5
  FPDc (field-potential duration corrected by beat-rate), % change from baseline: 44.1±5.9 %
  Flat T-wave-like, number of observations/total well numbers: 0/5
0.1 µM, 48h
  BR (beating rate), % change from baseline: -14±2 %
  Beating below threshold, number of observations/total well numbers: 0/5
  Cessation of beating, number of observations/total well numbers: 0/5
  EAD, number of observations/total well numbers: 0/5
  FPDc (field-potential duration corrected by beat-rate), % change from baseline: 40.3±1.1 %
  Flat T-wave-like, number of observations/total well numbers: 0/5
0.1 µM, 72h
  BR (beating rate), % change from baseline: -17±2 %
  Beating below threshold, number of observations/total well numbers: 0/5
  Cessation of beating, number of observations/total well numbers: 0/5
  EAD, number of observations/total well numbers: 0/5
  FPDc (field-potential duration corrected by beat-rate), % change from baseline: 52.6±4.9 %
  Flat T-wave-like, number of observations/total well numbers: 0/5
0.1 µM, 96h
  BR (beating rate), % change from baseline: -19±3%
  Beating below threshold, number of observations/total well numbers: 0/5
  Cessation of beating, number of observations/total well numbers: 0/5
  EAD, number of observations/total well numbers: 0/5
  FPDc (field-potential duration corrected by beat-rate), % change from baseline: 57.6±5.7 %
  Flat T-wave-like, number of observations/total well numbers: 0/5
0.3 µM, 2h
  BR (beating rate), % change from baseline: -5±4%
  Beating below threshold, number of observations/total well numbers: 0/5
  Cessation of beating, number of observations/total well numbers: 0/5
  EAD, number of observations/total well numbers: 0/5
  FPDc (field-potential duration corrected by beat-rate), % change from baseline: 28.5±9.1 %
  Flat T-wave-like, number of observations/total well numbers: 0/5
0.3 µM, 24h
  BR (beating rate), % change from baseline: -29±5 %
  Beating below threshold, number of observations/total well numbers: 0/5
  Cessation of beating, number of observations/total well numbers: 0/5
  EAD, number of observations/total well numbers: 1/5
  FPDc (field-potential duration corrected by beat-rate), % change from baseline: 112±14.9 %
  Flat T-wave-like, number of observations/total well numbers: 1/5
0.3 µM, 48h
  BR (beating rate), % change from baseline: -31±2 %
  Beating below threshold, number of observations/total well numbers: 0/5
  Cessation of beating, number of observations/total well numbers: 0/5
  EAD, number of observations/total well numbers: 0/5
  FPDc (field-potential duration corrected by beat-rate), % change from baseline: 99.2±21.9 %
  Flat T-wave-like, number of observations/total well numbers: 1/5
0.3 µM, 72h
  BR (beating rate), % change from baseline: -40±3 %
  Beating below threshold, number of observations/total well numbers: 0/5
  Cessation of beating, number of observations/total well numbers: 0/5
  EAD, number of observations/total well numbers: 0/5
  FPDc (field-potential duration corrected by beat-rate), % change from baseline: 126.3±24.4 %
  Flat T-wave-like, number of observations/total well numbers: 1/5
0.3 µM, 96h
  BR (beating rate), % change from baseline: -43±6 %
  Beating below threshold, number of observations/total well numbers: 0/5
  Cessation of beating, number of observations/total well numbers: 0/5
  EAD, number of observations/total well numbers: 0/5
  FPDc (field-potential duration corrected by beat-rate), % change from baseline: 144.1±35.5 %
  Flat T-wave-like, number of observations/total well numbers: 1/5
1 µM, 2h
  BR (beating rate), % change from baseline: -28±5 %
  Beating below threshold, number of observations/total well numbers: 0/5
  Cessation of beating, number of observations/total well numbers: 0/5
  EAD, number of observations/total well numbers: 0/5
  FPDc (field-potential duration corrected by beat-rate), % change from baseline: 110.2±0 %
